Our source for the EC50 values is patent US20140343000A1 (priority 2011, published 2014).

This assay relates to recombinant NL4-3 virus (Renilla luciferase in nef, Gag P373S; NLRluc) in MT-2 cells. Nature of the assay: whole plant or invertebrate. It is filed as cell-based, HIV. The note with it: Renilla. The essentials: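 Read-out is Renilla luciferase, measured immediately after adding a premixed lysis/Dual Luciferase reagent. The reporter virus, NL4-3 with luciferase replacing part of nef plus Gag P373S, infected MT-2 cells for 4–5 days under serially diluted inhibitor.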

Setting [1] is: NL43, luciferase activity in cells infected for 4-5 days with NLRluc recombinants, serial dilutions of inhibitor, numeric values, read-out: EC50.
The mark [2] stands for this setting: NL43, luciferase activity in cells infected for 4-5 days with NLRluc recombinants, serial dilutions of inhibitor, class symbols (key in Table 1), read-out: EC50.

Read-outs that look alike come from different tables or passages of the source.

As a reminder, the EC50 is the concentration giving half of the maximal effect. On to `C=C(C)[C@@H]1CC[C@]2(NCc3ncccc3C(F)(F)F)CC[C@]3(C)[C@H](CC[C@@H]4[C@@]5(C)CC=C(c6ccc(C(=O)O)cc6)C(C)(C)[C@@H]5CC[C@]43C)[C@@H]12` [Example 134, 4-((1R,3aS,5aR,5bR,7aR,11aS,11bR,13aR,13bR)-5a,5b,8,8,11a-pentamethyl-1-(prop-1-en-2-yl)-3a-((3-(trifluoromethyl)pyridin-2-yl)methylamino)-2,3,3a,4,5,5a,5b,6,7,7a,8,11,11a,11b,12,13,13a,13b-octadecahydro-1H-cyclopenta[a]chrysen-9-yl)benzoic acid], for which the EC50 under setting [1] came out at 100 nM.

On to `C=C(C)[C@@H]1CC[C@]2(NC(=O)NCCCN(C)S(C)(=O)=O)CC[C@]3(C)[C@H](CC[C@@H]4[C@@]5(C)CC=C(c6ccc(C(=O)O)cc6)C(C)(C)[C@@H]5CC[C@]43C)[C@@H]12` [Example 49, 4-((1R,3aS,5aR,5bR,7aR,11aS,11bR,13aR,13bR)-5a,5b,8,8,11a-pentamethyl-3a-(3-(3-(N-methylmethylsulfonamido)propyl)ureido)-1-(prop-1-en-2-yl)-2,3,3a,4,5,5a,5b,6,7,7a,8,11,11a,11b,12,13,13a,13b-octadecahydro-1H-cyclopenta[a]chrysen-9-yl)benzoic acid], for which the EC50 under setting [2] is below 100 nM.

`C=C(C)[C@@H]1CC[C@]2(NCCN3CCN(S(=O)(=O)c4ccc(CC)cc4)CC3)CC[C@]3(C)[C@H](CC[C@@H]4[C@@]5(C)CC=C(c6ccc(C(=O)O)cc6)C(C)(C)[C@@H]5CC[C@]43C)[C@@H]12` [Example B40, 4-((1R,3aS,5aR,5bR,7aR,11aS,11bR,13aR,13bR)-3a-((2-(4-((4-ethylphenyl)sulfonyl)piperazin-1-yl)ethyl)amino)-5a,5b,8,8,11a-pentamethyl-1-(prop-1-en-2-yl)-2,3,3a,4,5,5a,5b,6,7,7a,8,11,11a,11b,12,13,13a,13b-octadecahydro-1H-cyclopenta[a]chrysen-9-yl)benzoic acid]: under setting [2], the EC50 was below 100 nM.

Take `C=C(C)[C@@H]1CC[C@]2(NCCN3CCN(S(=O)(=O)c4cccc5ccccc45)CC3)CC[C@]3(C)[C@H](CC[C@@H]4[C@@]5(C)CC=C(c6ccc(C(=O)O)cc6)C(C)(C)[C@@H]5CC[C@]43C)[C@@H]12` [Example B49, 4-((1R,3aS,5aR,5bR,7aR,11aS,11bR,13aR,13bR)-5a,5b,8,8,11a-pentamethyl-3a-((2-(4-(naphthalen-1-ylsulfonyl)piperazin-1-yl)ethyl)amino)-1-(prop-1-en-2-yl)-2,3,3a,4,5,5a,5b,6,7,7a,8,11,11a,11b,12,13,13a,13b-octadecahydro-1H-cyclopenta[a]chrysen-9-yl)benzoic acid]: the EC50 under setting [2] is below 100 nM.

As for `C=C(C)[C@@H]1CC[C@]2(NC(=O)N[C@H](CO)C(=O)O)CC[C@]3(C)[C@H](CC[C@@H]4[C@@]5(C)CC=C(c6ccc(C(=O)O)cc6)C(C)(C)[C@@H]5CC[C@]43C)[C@@H]12` [Example 20, 4-((1R,3aS,5aR,5bR,7aR,11aS,11bR,13aR,13bR)-3a-(3-((R)-1-carboxy-2-hydroxyethyl)ureido)-5a,5b,8,8,11a-pentamethyl-1-(prop-1-en-2-yl)-2,3,3a,4,5,5a,5b,6,7,7a,8,11,11a,11b,12,13,13a,13b-octadecahydro-1H-cyclopenta[a]chrysen-9-yl)benzoic acid], the EC50 under setting [1] came out at 400 nM.

In the case of `C=C(C)[C@@H]1CC[C@]2(NCCN3CCS(=O)(=O)CC3)CC[C@]3(C)[C@H](CC[C@@H]4[C@@]5(C)CC=C(c6ccc(C(=O)NS(=O)(=O)C7CC7)cc6)C(C)(C)[C@@H]5CC[C@]43C)[C@@H]12` [Example 164, N-(cyclopropylsulfonyl)-4-((1R,3aS,5aR,5bR,7aR,11aS,11bR,13aR,13bR)-3a-((2-(1,1-dioxido-4-thiomorpholinyl)ethyl)amino)-1-isopropenyl-5a,5b,8,8,11a-pentamethyl-2,3,3a,4,5,5a,5b,6,7,7a,8,11,11a,11b,12,13,13a,13b-octadecahydro-1H-cyclopenta[a]chrysen-9-yl)benzamide], the EC50 (NL43) is below 100 nM.

As for `C=C(C)[C@@H]1CC[C@]2(NC(=O)NCCN(C)C)CC[C@]3(C)[C@H](CC[C@@H]4[C@@]5(C)CC=C(c6ccc(C(=O)O)cc6)C(C)(C)[C@@H]5CC[C@]43C)[C@@H]12` [Example 3, 4-((1R,3aS,5aR,5bR,7aR,11aS,11bR,13aR,13bR)-3a-(3-(2-(dimethylamino)ethyl)ureido)-5a,5b,8,8,11a-pentamethyl-1-(prop-1-en-2-yl)-2,3,3a,4,5,5a,5b,6,7,7a,8,11,11a,11b,12,13,13a,13b-octadecahydro-1H-cyclopenta[a]chrysen-9-yl)benzoic acid], under setting [1], the EC50 was found to be 4 nM.

Take `C=C(C)[C@@H]1CC[C@]2(NC(=O)NCC(C)(C)N3CCOCC3)CC[C@]3(C)[C@H](CC[C@@H]4[C@@]5(C)CC=C(c6ccc(C(=O)O)cc6)C(C)(C)[C@@H]5CC[C@]43C)[C@@H]12` [Example 6, 4-((1R,3aS,5aR,5bR,7aR,11aS,11bR,13aR,13bR)-5a,5b,8,8,11a-pentamethyl-3a-(3-(2-methyl-2-morpholinopropyl)ureido)-1-(prop-1-en-2-yl)-2,3,3a,4,5,5a,5b,6,7,7a,8,11,11a,11b,12,13,13a,13b-octadecahydro-1H-cyclopenta[a]chrysen-9-yl)benzoic acid]: under setting [2], the EC50 was below 100 nM.

With `C=C(C)[C@@H]1CC[C@]2(NCCN3CCN(C(=O)C(=O)N4CCCCC4)CC3)CC[C@]3(C)[C@H](CC[C@@H]4[C@@]5(C)CC=C(c6ccc(C(=O)O)cc6)C(C)(C)[C@@H]5CC[C@]43C)[C@@H]12` [Example B29, 4-((1R,3aS,5aR,5bR,7aR,11aS,11bR,13aR,13bR)-5a,5b,8,8,11a-pentamethyl-3a-((2-(4-(2-oxo-2-(piperidin-1-yl)acetyl)piperazin-1-yl)ethyl)amino)-1-(prop-1-en-2-yl)-2,3,3a,4,5,5a,5b,6,7,7a,8,11,11a,11b,12,13,13a,13b-octadecahydro-1H-cyclopenta[a]chrysen-9-yl)benzoic acid], the EC50 under setting [2] is below 100 nM.

Consider `C=C(C)[C@@H]1CC[C@]2(NCCN3CCN(C(=O)CC)CC3)CC[C@]3(C)[C@H](CC[C@@H]4[C@@]5(C)CC=C(c6ccc(C(=O)O)cc6)C(C)(C)[C@@H]5CC[C@]43C)[C@@H]12` [Example B60, 4-((1R,3aS,5aR,5bR,7aR,11aS,11bR,13aR,13bR)-5a,5b,8,8,11a-pentamethyl-1-(prop-1-en-2-yl)-3a-((2-(4-propionylpiperazin-1-yl)ethyl)amino)-2,3,3a,4,5,5a,5b,6,7,7a,8,11,11a,11b,12,13,13a,13b-octadecahydro-1H-cyclopenta[a]chrysen-9-yl)benzoic acid], for which, under setting [2], the EC50 was below 100 nM.

In the case of `C=C(C)[C@@H]1CC[C@]2(NC(=O)C(NC3CCS(=O)(=O)C3)C(C)C)CC[C@]3(C)[C@H](CC[C@@H]4[C@@]5(C)CC=C(c6ccc(C(=O)O)cc6)C(C)(C)[C@@H]5CC[C@]43C)[C@@H]12` (stereo partly drawn) [Example 112, benzoic acid, 4-[(1R,3aS,5aR,5bR,7aR,11aS,11bR,13aR,13bR)-2,3,3a,4,5,5a,5b,6,7,7a,8,11,11a,11b,12,13,13a,13b-octadecahydro-5a,5b,8,8,11a-pentamethyl-1-(1-methylethenyl)-3a-[[3-methyl-1-oxo-2-[(tetrahydro-1,1-dioxido-3-thienyl)amino]butyl]amino]-1H-cyclopenta[a]chrysen-9-yl]], the EC50 under setting [2] is below 100 nM.
